Measured values: US20180093956A1, “SUBSTITUTED PHTHALAZINES” (AbbVie Inc., priority 2015, published 2018)

What was measured:
[1] = molecular target: SUV420H1 enzyme (Homo sapiens, UniProt Q4FZB7); test: TR-FRET SAH SUV420H1 enzyme inhibition assay; type: biochemical; conditions: Histone Peptide H4(8-30)me1 and SAM, TR-FRET detection of SAH, read-out: TR-FRET SAH_SUV420H1 IC50
Procedure: Test compounds were dispensed by a Labcyte Echo in 384-well low volume assay plates with 3-fold serial dilutions from 50 μM to 0.00075 μM. 5 μL of SUV420H1 enzyme (Abbvie) at 90 nM was added to all wells except for the no enzyme control wells and incubated for 30 minutes at room temperature before 5 μL of Histone Peptide H4(8-30)me1 (Anaspec) at 5 μM and SAM at 4 μM was added to all wells. The plates were incubated in a humidified chamber overnight at room temp and then 10 μL of the detection reagent that contained RIPA buffer (50 mM Tris-HCl, pH 8.0, 150 mM sodium chloride, 1.0% Igepal CA-630 (NP-40), 0.5% sodium deoxycholate and 0.1% sodium dodecyl sulfate) (Sigma) with 2 nM of Terbium chelate anti S-adenosyl-L-homocysteine (SAH) (Abbvie) antibody and Oregon Green labeled SAH at 4 nM was added. The plates were further incubated for 4 hours at room temperature. The plates were read in a Perkin Elmer Envision using a TR-FRET protocol with Excitation set at 335 nm and Emission at 520 and 495 nm. To generate dose response curves the data is normalized to percent inhibition by setting the average of the plus and minus enzyme control wells to 0% and 100% inhibition respectively. The ICso values for the compounds are generated by fitting the normalized data with Accelrys Assay Explorer 3.3 to a sigmoidal curve model using […], Y=(100*x^n)/(K^n+x^n), where Y is the measured response, x is the compound concentration, n is the Hill Slope and K is the IC50 and the lower and higher asymptotes are constrained to 0 and 100 respectively.

[2] = system: H4K20me3 in PC-3 cells (SUV420H1 cellular activity); test: H4K20me3 Cellular PD Assay (high content microscopy); type: cell-based; conditions: Homo sapiens, treated for 72 hours, H4K20me3 immunofluorescence, read-out: H4K20me3 Inhibition EC50
Procedure: A high content microscopy-based PD assay was used to analyze the decrease of H4K20me3 upon inhibition of SUV420H1 cellular activity. PC-3 cells were plated at 3,000 cells per well in black Collagen I coated 96-well plates (Perkin Elmer, #6005810) in RPMI supplemented with 10% heat inactivated FBS, 1% sodium pyruvate and 1% non-essential amino acids in a 37° C. tissue culture incubator. At 24 hours post seeding, cells were treated with the indicated compounds for 72 hours in an 8-point dose response using half log dilutions from […] and then fixed in 2% formaldhyde (Polysciences, Inc., #04018) for 10 minutes at room temperature. Cells were washed in PBS and permeablized in 0.1% Triton X-100 for 10 minutes at room temperature. After blocking in 1% BSA (Sigma, #A7030) in PBS for 1 hour at room temperature, a mouse monoclonal antibody directed toward H4K20me3 (Santa Cruz, #sc-134216) in antibody dilution buffer (0.3% BSA in PBS) was added for 16 hours at 4° C. Cells were then washed 3 times in PBS and an Alexa Fluor 555 conjugated goat anti-mouse (Life Technologies #A-21424) secondary antibody was added for 1 hour at room temperature. Hoechst 33342 diluted 1:10000 (Life Technologies #H3570) was also added during the secondary antibody incubation. Cells were washed 3 times in PBS and stored in PBS at 4° C. Fluorescent images were acquired within 24 hours on a Cell Insight (Thermo Fisher Scientific) using the Target Activation algorithm. Objects were identified via nuclear Hoescht staining, and changes in average mean intensity in the fluorescent signals of H4K20me3 were quantified using the HCS View software platform (Thermo Fisher Scientific).

Chain of SUV420H1 enzyme (Q4FZB7 whole entry): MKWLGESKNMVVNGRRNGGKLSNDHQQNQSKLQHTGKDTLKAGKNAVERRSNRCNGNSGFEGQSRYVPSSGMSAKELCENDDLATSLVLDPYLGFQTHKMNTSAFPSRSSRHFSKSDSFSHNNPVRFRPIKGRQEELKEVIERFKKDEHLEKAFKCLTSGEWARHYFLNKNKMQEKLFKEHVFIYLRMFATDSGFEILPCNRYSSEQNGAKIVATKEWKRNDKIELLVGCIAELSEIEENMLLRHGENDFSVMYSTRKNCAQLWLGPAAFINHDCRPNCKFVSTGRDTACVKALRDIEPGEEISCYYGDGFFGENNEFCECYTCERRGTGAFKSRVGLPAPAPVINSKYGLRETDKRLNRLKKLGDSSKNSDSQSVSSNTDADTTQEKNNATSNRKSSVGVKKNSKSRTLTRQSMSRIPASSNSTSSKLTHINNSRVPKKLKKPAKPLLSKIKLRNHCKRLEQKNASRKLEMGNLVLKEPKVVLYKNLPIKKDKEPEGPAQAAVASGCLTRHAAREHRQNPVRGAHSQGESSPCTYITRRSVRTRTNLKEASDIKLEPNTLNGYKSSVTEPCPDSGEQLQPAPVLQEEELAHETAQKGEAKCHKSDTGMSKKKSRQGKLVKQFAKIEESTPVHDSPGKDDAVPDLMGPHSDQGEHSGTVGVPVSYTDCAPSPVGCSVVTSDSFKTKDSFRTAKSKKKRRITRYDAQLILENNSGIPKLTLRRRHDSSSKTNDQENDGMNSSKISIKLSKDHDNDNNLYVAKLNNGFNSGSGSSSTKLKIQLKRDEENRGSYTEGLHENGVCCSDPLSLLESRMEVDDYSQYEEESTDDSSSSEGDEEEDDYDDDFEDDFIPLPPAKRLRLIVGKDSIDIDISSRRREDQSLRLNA

Row | SMILES | IC50 [1] | EC50 [2]
1 | Clc1cc2c(NC3CCCC3)nnc(N3CCCCC3)c2cc1Cl [Example 8, 6,7-dichloro-N-cyclopentyl-4-(piperidin-1-yl)phthalazin-1-amine] | 87.1 nM | 2920 nM
2 | CN(C)c1ccc(-c2nnc(NC3CCCC3)c3cc(Cl)c(Cl)cc23)cn1 [Example 20, 6,7-dichloro-N-cyclopentyl-4-[6-(dimethylamino)pyridin-3-yl]phthalazin-1-amine] | 415 nM | 9540 nM
3 | Clc1cc2c(Cl)nnc(NC3CCCC3)c2cc1Cl [Example 1, 4,6,7-trichloro-N-cyclopentylphthalazin-1-amine] | 361 nM | 11400 nM
4 | OCCNc1ccc(-c2nnc(NC3CCCC3)c3cc(Cl)c(Cl)cc23)cn1 [Example 30, 2-({5-[6,7-dichloro-4-(cyclopentylamino)phthalazin-1-yl]pyridin-2-yl}amino)ethanol] | 1050 nM | 465 nM
5 | O=C(NCCO)c1nnc(NC2CCCC2)c2cc(Cl)c(Cl)cc12 [Example 66, 6,7-dichloro-4-(cyclopentylamino)-N-(2-hydroxyethyl)phthalazine-1-carboxamide] | 140 nM | 2490 nM
6 | Clc1cc2c(NC3CCCC3)nnc(-c3ccncc3)c2cc1Cl [Example 6, 6,7-dichloro-N-cyclopentyl-4-(pyridin-4-yl)phthalazin-1-amine] | 38.6 nM | 522 nM
7 | Fc1ccc(-c2nnc(NC3CCCC3)c3cc(Cl)c(Cl)cc23)cn1 [Example 19, 6,7-dichloro-N-cyclopentyl-4-(6-fluoropyridin-3-yl)phthalazin-1-amine] | 163 nM | 1210 nM
8 | Clc1cc2c(NC3CCCC3)nnc(-c3ccsc3)c2cc1Cl [Example 7, 6,7-dichloro-N-cyclopentyl-4-(thiophen-3-yl)phthalazin-1-amine] | 75.3 nM | 1510 nM
9 | NC(=O)c1nnc(NC2CCCC2)c2cc(Cl)c(Cl)cc12 [Example 42, 6,7-dichloro-4-(cyclopentylamino)phthalazine-1-carboxamide] | 127 nM | 2830 nM
10 | CN1CCN(c2nnc(NC3CCCC3)c3cc(Cl)c(Cl)cc23)CC1 [Example 9, 6,7-dichloro-N-cyclopentyl-4-(4-methylpiperazin-1-yl)phthalazin-1-amine] | 373 nM | 3430 nM
11 | CN(CCO)c1ccc(-c2nnc(NC3CCCC3)c3cc(Cl)c(Cl)cc23)cn1 [Example 26, 2-{[5-[6,7-dichloro-4-(cyclopentylamino)phthalazin-1-yl]pyridin-2-yl}(methyl)amino]ethanol] | 389 nM | 4500 nM

Further lines, results first:

Row | IC50 [1] | EC50 [2] | SMILES
12 | 333 nM | 10500 nM | CC(=O)N1CCN(C(=O)Cn2cc(-c3nnc(NC4CCCC4)c4cc(Cl)c(Cl)cc34)cn2)CC1 [Example 62, 1-(4-acetylpiperazin-1-yl)-2-{4-[6,7-dichloro-4-(cyclopentylamino)phthalazin-1-yl]-1H-pyrazol-1-yl}ethanone]
13 | 229 nM | 532 nM | NC1CCN(c2cc(-c3nnc(NC4CCCC4)c4cc(Cl)c(Cl)cc34)ccn2)C1 (stereo not shown) [Example 40, 4-[2-(3-aminopyrrolidin-1-yl)pyridin-4-yl]-6,7-dichloro-N-cyclopentylphthalazin-1-amine]
14 | 188 nM | 6570 nM | O=C(Cn1cc(-c2nnc(NC3CCCC3)c3cc(Cl)c(Cl)cc23)cn1)N1CCC(O)CC1 [Example 64, 2-{4-[6,7-dichloro-4-(cyclopentylamino)phthalazin-1-yl]-1H-pyrazol-1-yl}-1-(4-hydroxypiperidin-1-yl)ethanone]
15 | 470 nM | 3080 nM | OC1CCN(c2cc(-c3nnc(NC4CCCC4)c4cc(Cl)c(Cl)cc34)ccn2)CC1 [Example 29, 1-{4-[6,7-dichloro-4-(cyclopentylamino)phthalazin-1-yl]pyridin-2-yl}piperidin-4-ol]
16 | 165 nM | 6730 nM | O=C(Cn1cc(-c2nnc(NC3CCCC3)c3cc(Cl)c(Cl)cc23)cn1)NCCO [Example 56, 2-{4-[6,7-dichloro-4-(cyclopentylamino)phthalazin-1-yl]-1H-pyrazol-1-yl}-N-(2-hydroxyethyl)acetamide]
17 | 204 nM | 10700 nM | CN(CCO)C(=O)Cn1cc(-c2nnc(NC3CCCC3)c3cc(Cl)c(Cl)cc23)cn1 [Example 57, 2-{4-[6,7-dichloro-4-(cyclopentylamino)phthalazin-1-yl]-1H-pyrazol-1-yl}-N-(2-hydroxyethyl)-N-methylacetamide]
18 | 111 nM | 505 nM | Cn1cc(-c2nnc(NC3CCCC3)c3cc(Cl)c(Cl)cc23)cn1 [Example 5, 6,7-dichloro-N-cyclopentyl-4-(1-methyl-1H-pyrazol-4-yl)phthalazin-1-amine]
19 | 190 nM | 4990 nM | CN1CCN(C(=O)Cn2cc(-c3nnc(NC4CCCC4)c4cc(Cl)c(Cl)cc34)cn2)CC1 [Example 61, 2-{4-[6,7-dichloro-4-(cyclopentylamino)phthalazin-1-yl]-1H-pyrazol-1-yl}-1-(4-methylpiperazin-1-yl)ethanone]
20 | 174 nM | 7910 nM | CC(C)(C)OC(=O)Cn1cc(-c2nnc(NC3CCCC3)c3cc(Cl)c(Cl)cc23)cn1 [Example 43, tert-butyl {4-[6,7-dichloro-4-(cyclopentylamino)phthalazin-1-yl]-1H-pyrazol-1-yl}acetate]
